In patent publication US9700547B2, “Use of 6-hydroxy-2-pyridones and derivatives thereof for preparing a pharmaceutical composition that acts by inhibiting the human uridine phosphorylase enzyme” (UNIÃO BRASILEIRA DE EDUCAÇÃO E ASSISTÊNCIA, MANTENEDORA DA …, priority 2013, dated 2017):

Key:
[1] = target: T1, Human Phosphorylase Uridine 1 (hUP1) (Homo sapiens, UniProt Q16831); assay: hUP1 enzymatic assay, inhibition at 1 μM (UV absorbance of uridine at 280 nm); type: biochemical; settings: 1 μM compound, 37° C.
Method: (§1) The enzymatic activity of the hUP1 is performed through the enzymatic essay using one spectrophotometer UV/visible where the absorbance reduction of uridine in 280 nm, for 1 min and at 37° C. was monitored.
For determining which inhibitors would be selected for determining the inhibition constant (Ki), one cut point of 1 μM was stipulated, where only those compounds that would inhibit more than 60% of the initial activity of the enzyme would be selected for this type of analysis (Table 1). From all compounds tested, 7 molecules had its inhibition above 60% with the concentration of 1 μM (Compounds c1, c2, c3, c4, c6, c12, and c13). All essays described on this patent application were performed for these compounds and for benzil acyclo uridine (BAU), in order to perform a direct comparison of the results achieved with the better in vitro inhibitor of the hUP1 described (standard).

[2] = target: T1, Human Phosphorylase Uridine 1 (hUP1); assay: Ki and inhibition type from substrate saturation curves, double-reciprocal analysis; type: biochemical; settings: for Inhibiting type for phosphate: substrate Pi; for Inhibition type for uridine: substrate uridine
Method: as §1
For determining Ki for the selected inhibitors, we performed saturation curves where the concentration of one of the substrates is fixed next to the Km and the concentration of another, varied until the saturation in fixed-varying concentrations of each one of the inhibitors.
(I) v=VA/[Ka(1+I/Kii)+A(1+Kis)] (II) v=VA/[A(1+I/Kis)+Ka] (III)

hUP1 = hUP1 (Homo sapiens, UniProt Q16831); assay: isothermal titration microcalorimetry (ITC), free enzyme; type: binding
Method: (§2) For determining the thermodynamic parameters (enthalpy variation—ΔH, entropy variation—ΔS, and free energy variation of Gibbs—ΔG) were performed compounds binding essays to the enzyme in different conditions: free enzyme, complexed enzyme with the substrate Pi, and the complexed enzyme with the product ribose-1-phosphate (R1P). For such analyses, it was used isothermal titration microcalorimetry (ITC) where the equipment monitors the difference of transferred heat, between the reference cell and the sample cell, when bindings are formed or broken during the binding process. The data analysis achieved was performed through the model One Set of Sites and the determination of ΔG and the dissociation constant (KD) were through the equations (IV) and (V) below, respectively: ΔG=ΔH−TΔS (IV) KD=1/Ka (V)

hUP1-Pi = hUP1-Pi (Homo sapiens, UniProt Q16831); assay: isothermal titration microcalorimetry (ITC), enzyme complexed with substrate Pi; type: binding
Method: as §2

hUP1-R1P = hUP1-R1P (Homo sapiens, UniProt Q16831); assay: isothermal titration microcalorimetry (ITC), enzyme complexed with product ribose-1-phosphate; type: binding
Method: as §2

Sequence of hUP1-Pi (Q16831 whole entry): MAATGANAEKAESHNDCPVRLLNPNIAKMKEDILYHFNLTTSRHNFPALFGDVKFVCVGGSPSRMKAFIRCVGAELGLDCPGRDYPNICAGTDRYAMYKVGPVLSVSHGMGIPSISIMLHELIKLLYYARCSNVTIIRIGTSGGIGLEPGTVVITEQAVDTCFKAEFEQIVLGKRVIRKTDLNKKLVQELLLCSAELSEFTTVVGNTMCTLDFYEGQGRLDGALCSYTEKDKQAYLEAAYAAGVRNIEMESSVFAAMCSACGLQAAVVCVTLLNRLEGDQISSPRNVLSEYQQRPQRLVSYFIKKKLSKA
Sequence of hUP1-R1P (Q16831 whole entry): as above
Sequence of hUP1 (Q16831 whole entry): as above
T1 sequence (Q16831 whole entry): as above

Row | SMILES | inhibition at 1 µM [1] | Inhibiting type for phosphate [2] | Inhibition type for uridine [2] | Kd (hUP1) | ΔG° (hUP1) | ΔH° (hUP1) | −TΔS (kcal/mol/deg) (hUP1) | Kd (hUP1-Pi) | ΔG° (hUP1-Pi) | ΔH° (hUP1-Pi) | −TΔS (kcal/mol/deg) (hUP1-Pi) | Kd (hUP1-R1P; hUP1-R1P 50 μM) | ΔG° (hUP1-R1P; hUP1-R1P 50 μM) | ΔH° (hUP1-R1P; hUP1-R1P 50 μM) | −TΔS (kcal/mol/deg) (hUP1-R1P; hUP1-R1P 50 μM) | Kd (hUP1-R1P; hUP1-R1P 150 μM) | ΔG° (hUP1-R1P; hUP1-R1P 150 μM) | ΔH° (hUP1-R1P; hUP1-R1P 150 μM) | −TΔS (kcal/mol/deg) (hUP1-R1P; hUP1-R1P 150 μM) | Inhibition with 1 μM (%) [1]
1 | CCCN(CCC)Cc1c(O)[nH]c(=O)c(C#N)c1C [Compound c10] | 20% |  |  |  |  |  |  |  |  |  |  |  |  |  |  |  |  |  |  | 
2 | Cc1c(CNCCO)c(O)[nH]c(=O)c1C#N [c2] | > 60% | Uncompetitive | Competitive | 2000 ± 221 nM | -8.0 ± 0.9 kcal/mol | -23 ± 0.5 kcal/mol | 14 ± 1.5 kcal/mol/deg | 151 ± 34 nM | -9.5 ± 2.1 kcal/mol | -16 ± 0.2 kcal/mol | 6.4 ± 1.4 kcal/mol/deg | 2300 ± 423 nM | -8.0 ± 1.5 kcal/mol | -17 ± 0.6 kcal/mol | 9.5 ± 1.7 kcal/mol | 3800 ± 553 nM | -7.6 ± 1.1 kcal/mol | -30 ± 1.5 kcal/mol | 23 ± 3.3 kcal/mol | 80%
3 | CCN(CC)Cc1c(O)[nH]c(=O)c(C#N)c1C [Compound c9] | 25% |  |  |  |  |  |  |  |  |  |  |  |  |  |  |  |  |  |  | 
4 | Cc1cc(O)[nH]c(=O)c1C#N [c13] |  | Not competitive | Not competitive | 12000 ± 1820 nM | -6.9 ± 1.0 kcal/mol | -8.7 ± 0.7 kcal/mol | 1.7 ± 0.2 kcal/mol/deg |  |  |  |  | 1300 ± 197 nM | -8.1 ± 1.2 kcal/mol | -27 ± 0.7 kcal/mol | 19 ± 2.9 kcal/mol | 1300 ± 435 nM | -8.0 ± 2.7 kcal/mol | -35 ± 2.1 kcal/mol | 27 ± 9.1 kcal/mol | 62%
5 | N#Cc1ccc(O)[nH]c1=O [c12] | > 60% | Not Competitive | Not competitive | 2900 ± 554 nM | -7.8 ± 1.5 kcal/mol | -9.6 ± 0.3 kcal/mol | 1.7 ± 0.3 kcal/mol/deg |  |  |  |  | 108 ± 18 nM | -9.8 ± 1.6 kcal/mol | -15 ± 0.1 kcal/mol | 5.7 ± 0.9 kcal/mol | 127 ± 48 nM | -9.7 ± 3.7 kcal/mol | -18 ± 0.5 kcal/mol | 8.5 ± 3.2 kcal/mol | 67%

More lines, now with the values ahead:

Row | inhibition at 1 µM [1] | Inhibiting type for phosphate [2] | Inhibition type for uridine [2] | Kd (hUP1) | ΔG° (hUP1) | ΔH° (hUP1) | −TΔS (kcal/mol/deg) (hUP1) | Kd (hUP1-Pi) | ΔG° (hUP1-Pi) | ΔH° (hUP1-Pi) | −TΔS (kcal/mol/deg) (hUP1-Pi) | Kd (hUP1-R1P; hUP1-R1P 50 μM) | ΔG° (hUP1-R1P; hUP1-R1P 50 μM) | ΔH° (hUP1-R1P; hUP1-R1P 50 μM) | −TΔS (kcal/mol/deg) (hUP1-R1P; hUP1-R1P 50 μM) | Kd (hUP1-R1P; hUP1-R1P 150 μM) | ΔG° (hUP1-R1P; hUP1-R1P 150 μM) | ΔH° (hUP1-R1P; hUP1-R1P 150 μM) | −TΔS (kcal/mol/deg) (hUP1-R1P; hUP1-R1P 150 μM) | Inhibition with 1 μM (%) [1] | SMILES
6 | 42% |  |  |  |  |  |  |  |  |  |  |  |  |  |  |  |  |  |  |  | N#Cc1c(-c2ccccc2)cc(O)[nH]c1=O [Compound c7]
7 |  | Uncompetitive | Competitive | 4200 ± 602 nM | -7.6 ± 1.1 kcal/mol | -6.7 ± 0.2 kcal/mol | 0.8 ± 0.1 kcal/mol/deg | 312 ± 73 nM | -9.1 ± 2.1 kcal/mol | -12 ± 0.2 kcal/mol | 2.6 ± 0.6 kcal/mol/deg | 7400 ± 381 nM | -7.2 ± 0.4 kcal/mol | -22 ± 0.4 kcal/mol | 14 ± 0.7 kcal/mol | 10000 ± 1320 nM | -7.0 ± 0.9 kcal/mol | -23 ± 0.1 kcal/mol | 16 ± 2.1 kcal/mol | 81% | Cc1c(CN(C)C)c(O)[nH]c(=O)c1C#N [c1]
8 | 49% |  |  |  |  |  |  |  |  |  |  |  |  |  |  |  |  |  |  |  | Cc1c(CN2CCCCC2)c(O)[nH]c(=O)c1C#N [Compound c5]
9 | 25% |  |  |  |  |  |  |  |  |  |  |  |  |  |  |  |  |  |  |  | CCc1cc(O)[nH]c(=O)c1C#N [Compound c8]
10 | 2% |  |  |  |  |  |  |  |  |  |  |  |  |  |  |  |  |  |  |  | O=c1[nH]cc(CNCCO)c(=O)[nH]1 [Compound c14]
11 | 43% |  |  |  |  |  |  |  |  |  |  |  |  |  |  |  |  |  |  |  | Cc1c(Cc2ccccc2)c(O)[nH]c(=O)c1C#N [Compound c11]
